According to patent US11510931B2, “Compositions and methods for treating ophthalmic conditions” (MEDICON PHARMACEUTICALS, INC., priority 2016, dated 2022):
Where two headings read alike, the source gives them in different places.

Experiment: Ocular biodistribution of PS after topical eye drops in New Zealand white rabbits (HPLC)
Format: in vivo, rabbit
Details: New Zealand white, rabbit, topical, topical
Description: Results: The above PS formulation was administered topically as eye drops to the eyes of New Zealand white rabbits. The levels of PS in ocular tissues 1 h and 3 h later were determined by HPLC. The Table below summarizes the findings:
Results: The above PS formulation was administered topically as eye drops to the eyes of New Zealand white rabbits. The levels of PS in ocular tissues at 2 h later were determined by HPLC. The table below summarizes the findings.
Results: PS in this formulation was administered topically to the eyes of New Zealand white rabbits and its biodistribution was determined as above. The Table below summarizes the findings.
Results: PS in this formulation was administered topically as eye drops to the eyes of New Zealand white rabbits. The biodistribution of PS in ocular tissues at 3 h and 6 h was determined by HPLC. The Table below summarizes the findings.
Biodistribution of PS after topical administration: PS formulated in nanoparticles as above was administered topically as eye drops to New Zealand white rabbits. The biodistribution of PS in ocular tissues at the indicated time points post administration was determined by HPLC. The Table below summarizes the findings.
Biodistribution of PS after topical administration: PS in the formulations was administered topically as eye drops to the eyes of New Zealand white rabbits. The levels of PS in ocular tissues at 0.5 h, 1 h and 3 h were determined by HPLC. The Table below summarizes the findings.
To assess the contribution of the foregoing formulations to the PK/biodistribution of PS in the ocular tissues, a solution of PS in pure propylene glycol (PG) was studied. PG is well tolerated by the eye. A 3.5% PS solution (in PG) as eye drops was administered topically to the eyes of New Zealand white rabbits and its 1-hour biodistribution was determined by HPLC. The Table summarizes the findings.

[1] = aqueous humor, 0.4% gellan gum in-situ gel, 2.4-3% PS, read-out: PS in Aqueous humor
[2] = ciliary body, 5.4 % PS, Poloxamer 407 in-situ gel, 5.4% PS, read-out: PS in Ciliary body
[3] = conjunctiva, 5.4 % PS, Poloxamer 407 in-situ gel, 5.4% PS, read-out: PS in Conjunctiva
[4] = conjunctiva, topical eye drops, mPEG-PLA nanoparticles, read-out: PS in Conjunctiva
[5] = cornea, topical eye drops, mPEG-PLA nanoparticles, read-out: PS in Cornea
[6] = iris, 5.4 % PS, Poloxamer 407 in-situ gel, 5.4% PS, read-out: PS in Iris
[7] = iris, topical eye drops, mPEG-PLA nanoparticles, read-out: PS in Iris
[8] = lacrimal gland, topical eye drops, mPEG-PLA nanoparticles, read-out: PS in Lacrimal gland
[9] = lens, 5.4 % PS, Poloxamer 407 in-situ gel, 5.4% PS, read-out: PS in Lens
[10] = retina, 3 % PS, sodium alginate/Tween 80 in-situ gel, 3% PS, read-out: PS in Retina
[11] = retina, 5.4 % PS, Poloxamer 407 in-situ gel, 5.4% PS, read-out: PS in Retina
[12] = sclera, 5.4 % PS, Poloxamer 407 in-situ gel, 5.4% PS, read-out: PS in Sclera
[13] = sclera, topical eye drops, mPEG-PLA nanoparticles, read-out: PS in Sclera
[14] = vitreous, 5.4 % PS, Poloxamer 407 in-situ gel, 5.4% PS, read-out: PS in Vitreous

CCOP(=O)(OCC)OCCCCOC(=O)CC1=C(C)/C(=C/c2ccc([S+](C)[O-])cc2)c2ccc(F)cc21 (stereo not shown) [PS, phosphosulindac]
concentration at 3 h [1]: 0 µM
concentration at 5 h [1]: 0 nM
concentration at 8 h [1]: 0 nM
concentration at 1 h (choroid, 3.5 % PS solution (eye drops), topical eye drops, 3.5% PS solution in propylene glycol, read-out: PS in Choroid): 0 µM
concentration at 6 h (choroid, 5.4 % PS, Poloxamer 407 in-situ gel, 5.4% PS, read-out: PS in Choroid): 0 µM
concentration at 2 h (choroid, 0.5% gellan gum in-situ gel, 2.4~3% PS, read-out: PS in Choroid): 0 µM
concentration at 3 h [2]: 0 µM
concentration at 6 h [2]: 0 µM
concentration at 2 h (ciliary body, 0.5% gellan gum in-situ gel, 2.4~3% PS, read-out: PS in Ciliary body): 0 µM
concentration at 1 h (conjunctiva, 3.5 % PS solution (eye drops), topical eye drops, 3.5% PS solution in propylene glycol, read-out: PS in Conjunctiva): 3.3 µM
concentration at 3 h [3]: 5.6 µM
concentration at 6 h [3]: 10.7 µM
concentration at 0.5 h [4]: 121 µM
concentration at 1 h [4]: 80.4 µM
concentration at 2 h [4]: 16.9 µM
concentration at 8 h (cornea, 3 % PS, sodium alginate/Tween 80 in-situ gel, 3% PS, read-out: PS in Cornea): 0 nM
concentration at 1 h (cornea, 3.5 % PS solution (eye drops), topical eye drops, 3.5% PS solution in propylene glycol, read-out: PS in Cornea): 38.8 µM
concentration at 6 h (cornea, 5.4 % PS, Poloxamer 407 in-situ gel, 5.4% PS, read-out: PS in Cornea): 13.6 µM
concentration at 0.5 h [5]: 89.8 µM
concentration at 1 h [5]: 63.9 µM
concentration at 2 h [5]: 43.5 µM
concentration at 3 h [6]: 0 µM
concentration at 6 h [6]: 0 µM
concentration at 0.5 h [7]: 2.8 µM
concentration at 1 h [7]: 6.4 µM
concentration at 2 h [7]: 1.3 µM
concentration at 2 h (iris, 0.5% gellan gum in-situ gel, 2.4~3% PS, read-out: PS in Iris): 0 µM
concentration at 1 h (lacrimal gland, 3.5 % PS solution (eye drops), topical eye drops, 3.5% PS solution in propylene glycol, read-out: PS in Lacrimal gland): 0.1 µM
concentration at 0.5 h [8]: 7.5 µM
concentration at 1 h [8]: 3.5 µM
concentration at 2 h [8]: 0.6 µM
concentration at 2 h (lacrimal gland, 0.5% gellan gum in-situ gel, 2.4~3% PS, read-out: PS in Lacrimal Gland): 0 µM
concentration at 3 h [9]: 0 µM
concentration at 6 h [9]: 0 µM
concentration at 2 h (lens, 0.5% gellan gum in-situ gel, 2.4~3% PS, read-out: PS in Lens): 0 µM
concentration at 1 h [10]: 0 µM
concentration at 3 h [10]: 0 µM
concentration at 5 h [10]: 0 nM
concentration at 8 h [10]: 0 nM
concentration at 1 h (retina, 3.5 % PS solution (eye drops), topical eye drops, 3.5% PS solution in propylene glycol, read-out: PS in Retina): 0 µM
concentration at 3 h [11]: 0 µM
concentration at 6 h [11]: 0 µM
concentration at 2 h (retina, 0.5% gellan gum in-situ gel, 2.4~3% PS, read-out: PS in Retina): 0 µM
concentration at 1 h (sclera, 3.5 % PS solution (eye drops), topical eye drops, 3.5% PS solution in propylene glycol, read-out: PS in Sclera): 0 µM
concentration at 3 h [12]: 0 µM
concentration at 6 h [12]: 0 µM
concentration at 0.5 h [13]: 32.1 µM
concentration at 1 h [13]: 17.1 µM
concentration at 2 h [13]: 4.7 µM
concentration at 2 h (sclera, 0.5% gellan gum in-situ gel, 2.4~3% PS, read-out: PS in Sclera): 0 µM
concentration at 1 h (vitreous body, 3.5 % PS solution (eye drops), topical eye drops, 3.5% PS solution in propylene glycol, read-out: PS in Vitreous body): 0 µM
concentration at 3 h (vitreous body, 3.5 % PS, topical eye drops, 3.5% PS/16% Vitamin E TPGS/mannitol/boric acid, read-out: PS in Vitreous body): 0 µM
concentration at 3 h [14]: 0 µM
concentration at 6 h [14]: 0 µM
concentration at 2 h (vitreous, 0.5% gellan gum in-situ gel, 2.4~3% PS, read-out: PS in Vitreous): 0 µM
